Columns and labels:
drosophilas = assay: Gustatory choice (feeding preference) behavioral test with two dyes; format: in vivo, Drosophila melanogaster
Method: The test used measures the feeding preference in a choice with 2 possibilities materialized by two dyes, on the one hand erioglaucine (blue) and, on the other hand, sulforhodamine (red).
The erioglaucine is used at a final concentration of 5 mg/ml, dissolved in double-distilled water, pH 7.5. The sulforhodamine is used at a final concentration of 20 mg/ml, dissolved in double-distilled water, pH 7.5. The 2 dye solutions also contain sucrose fat a final concentration of 5 mM). The agonists (pH=7.5) used are added, an the final concentrations indicated on the figures, to the solution containing the erioglaucine.
To prepare a solid medium, these various compounds are added to a molten solution of agarose (0.3% final concentration, 45° C.) and deposited in a 96-well cell culture plate (Corning Incorporated, ref 3599) such that the wells alternately contain 200 μl of blue dye then 200 μl of red dye (see FIG. 4). The plates are left at ambient temperature for 2 hours in order for the agarose to solidify, and are then used for a feeding preference test.
For each behavioral test, 60 2- to 5-day-old drosophilas are deprived of food for 24 hours on cotton wool soaked with distilled water before the test and are then placed in a box containing a 96-well plate prepared as indicated above. The drosophilas are left in the dark for 2 hours, at 25° C., at a humidity of 30 to 50%. The drosophilas are then rapidly collected by anesthesia with CO2 and then frozen at −20° C. for 20 minutes. In order to determine the food intake, the flies are counted according to the color of the content of their digestive tube. The results are expressed as % of flies which have eaten a given medium relative to the total number of flies which have eaten, according to the formula: % blue=number of flies with a blue digestive tube, divided by the number of flies which have eaten (sum of the flies with a blue, violet or red digestive tube), multiplied by 100.
At least 3 independent tests were carried out for each point indicated on the figures, and the results of the tests were counted blind for the majority of the points. Only the tests in which more than […] of the flies had eaten were included in the results and in the statistical tests (T test and ANOVA). […]
The flies are counted according to the color of the content of their digestive tube.
The results are expressed as percentage of flies which have eaten a given medium, relative to the total number of flies which have eaten. % blue=N blue/(N blue+N violet+N red)×100 […]

DmX receptor (DmXR) = molecular target: T1, DmX receptor (DmXR) (Drosophila melanogaster, UniProt Q70GQ8); assay: Pharmacological test: DmXR activation in transfected HEK cells, measured by accumulation of inositol triphosphate; details: FIG. 1
T1 sequence (Q70GQ8 1-1073): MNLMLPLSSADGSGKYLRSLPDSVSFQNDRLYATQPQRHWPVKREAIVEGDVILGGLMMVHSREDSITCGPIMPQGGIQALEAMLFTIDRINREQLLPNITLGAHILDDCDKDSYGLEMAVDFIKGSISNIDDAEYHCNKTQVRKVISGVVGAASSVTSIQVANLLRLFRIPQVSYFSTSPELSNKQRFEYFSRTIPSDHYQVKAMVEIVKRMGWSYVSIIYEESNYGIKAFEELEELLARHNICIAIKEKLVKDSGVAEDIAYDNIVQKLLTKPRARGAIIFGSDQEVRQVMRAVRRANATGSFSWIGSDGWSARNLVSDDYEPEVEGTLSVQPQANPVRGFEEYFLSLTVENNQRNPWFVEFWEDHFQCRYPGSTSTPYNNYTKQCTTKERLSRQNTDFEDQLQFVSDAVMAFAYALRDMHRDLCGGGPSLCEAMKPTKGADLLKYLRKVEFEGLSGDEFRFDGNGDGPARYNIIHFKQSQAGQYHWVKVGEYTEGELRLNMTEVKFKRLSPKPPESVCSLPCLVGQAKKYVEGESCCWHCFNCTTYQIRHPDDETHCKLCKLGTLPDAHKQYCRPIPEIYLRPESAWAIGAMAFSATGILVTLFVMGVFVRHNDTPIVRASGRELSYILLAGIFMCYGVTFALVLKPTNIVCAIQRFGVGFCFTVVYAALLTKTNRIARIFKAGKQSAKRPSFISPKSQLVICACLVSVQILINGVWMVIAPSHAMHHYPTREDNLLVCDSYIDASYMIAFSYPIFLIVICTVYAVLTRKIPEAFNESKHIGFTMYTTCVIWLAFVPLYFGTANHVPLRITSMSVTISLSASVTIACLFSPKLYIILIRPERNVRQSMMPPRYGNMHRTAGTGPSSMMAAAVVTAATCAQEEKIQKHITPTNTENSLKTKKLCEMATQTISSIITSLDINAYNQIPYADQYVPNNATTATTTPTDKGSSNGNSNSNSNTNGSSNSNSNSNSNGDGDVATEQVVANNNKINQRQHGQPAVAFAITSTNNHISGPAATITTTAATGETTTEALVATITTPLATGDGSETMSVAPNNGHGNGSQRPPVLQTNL

N=C(N)NOCC[C@H](N)C(=O)O [L-canavanine, L-2-amino-4-(guanidinooxy)butyric acid]
effect on sugary solution in behavioral test (drosophilas; 40 mM, 5 mM sucrose): very highly repellent | concentration at which a plateau of repellent effect is reached (drosophilas; additional experiments): around 30 mM | repulsion in DmX receptor function loss mutants (drosophilas; mutant drosophilas m1 and m2 (DmXR-)): no longer have any repulsion | repellent effect in chemosensory behavioral test (drosophilas; wild-type drosophila, sugary solution (5 mM sucrose)): highly repellent | in vitro activation of the DmX receptor (DmX receptor (DmXR)): activated

From patent US8048683B2, “Insect repellent and process for identifying other insect repellent molecules” (Centre National de la Recherche Scientifique, priority 2006, dated 2011)
